Measured values as given in patent publication US7964556B1, “Antimicrobial peptides and use thereof” (Toagosei Co., Ltd, priority 2004, dated 2011).
Where a SMILES comes first, the peptide text is derived from it.

Tests used:
Assay type in all cases: cell-based
sheep's erythrocytes = test system: sheep's erythrocytes
Protocol: A test on the hemolytic activity of 2 kinds of synthesized peptides (sample 9 and sample 10) in example 1 was performed and served as indicator of the effects of these peptides on animal cell (erythrocyte). The hemolytic activity test in the present example was performed as follows. Specifically, sample peptides were dissolved in PBS (pH7.4), and thereafter 10 stages of twice diluted strains (sample solutions) with peptide concentration of 400, 200, 100, 50, 25, 12.5, 6.25, 3.13, 1.56 and 0.78 μM were prepared. Here, PBS was used as a control of 0% hemolysis, and PBS containing 0.1% of triton X-100 was used as a control of 100% hemolysis. Erythrocyte of fiber-free sheep's blood was then added to these sample solutions such that the volume ratio (v/v) was 1% of these sample solutions. After adding the above-described red blood cells, the sample solutions were incubated for 1 hour at 37° C., and thereafter the hemolysis was ceased with cold water. Next, centrifugal separation at 3000 rpm was performed for […] at 4° C.
After centrifugal separation, each supernatant was fed to the 96-well microplate, and absorbency under 540 nm wavelength was determined. The hemolytic rate (%) was then calculated by the following formula based on the results determined: {(Aexp−A0)/A100}×100. […]

Staphylococcus aureus = settings: for Antimicrobial Activities (MIC) S. aureus: 24 h; for antimicrobial activities against gram-positive bacteria (S. aureus), in words: summary of Table 2
Protocol: (§1) Regarding the antimicrobial peptide in samples 1 to 14 and the comparative sample 1, the antimicrobial activities (minimum inhibitory concentration: MIC) with respect to gram-negative bacteria (Escherichia coli) and gram-positive bacteria (Staphylococcus aureus) were determined, as described below, by a liquid medium dilution technique using a 96-well microplate. First, a drug (synthesized peptide) solution having a concentration of 40 times of the highest test concentration was prepared using sterile distilled water, and thereafter liquid-bouillon mediums (“NUTRIENT BROTH Dehydrated” manufactured by DIFCO) having peptide concentrations of 200, 100, 50, 25, 12.5, 6.25, 3.13, 1.56 and 0.78 μM were produced respectively. The produced liquid-bouillon mediums including the peptide of each concentration were then fed to the 96-well microplate at 100 μL a time.
(§2) At the same time, test bacteria cultured for 18 hours at 37° C. on an agar plate (“Muller Hinton Agar” manufactured by DIFCO) were gathered by scratching with a loop, and then suspended in a sterilized physiological saline. Bacterial suspension 5 μL prepared at an equivalent of 2×10^7 cells/mL was respectively inoculated (number of bacteria to be tested: approximately 1×10^6 cells/mL) onto the above-described liquid-bouillon mediums including the peptide of each concentration and fed to each well of the above-described microplate. After inoculation, the microplate was then incubated in an incubator at 37° C., and the presence of bacteria was evaluated based on the turbidity 24 hours later. The minimum drug concentration (peptide concentration), in which an increased in turbidity caused by bacteria was not detected at the time of measurement, was defined as MIC (minimum inhibitory concentration) (unit: μM) in the present embodiment.

Escherichia coli = settings: 24 h
Protocol: as §1, §2

S. aureus = test system: S. aureus
Protocol: Next, the antimicrobial activities (MIC) against gram-positive bacteria (S. aureus) in the presence of serum and high concentration of cation were tested with the same method as Example 2. However, only the above-described sample 9 was used as the test peptide. Specifically, a drug (synthesized peptide of sample 9) solution having a concentration of 40 times of the highest test concentration was prepared using sterile distilled water. Thereafter, MHB mediums (“Mueller Hinton Broth” manufactured by DIFCO) including high concentration of cation with peptide concentrations of 50, 25, 12.5, 6.25, 3.13, 1.56 and 0.78 μM were produced respectively. The cation included was prepared as follows: dissolving 3.68 g of CaCl2.2H2O in 100 mL of purified water (10 mg.Ca^2+/mL), and thereafter adding 500 μL thereof into 100 mL of Mueller Hinton Broth; and dissolving 8.36 g of MgCl2.6H2O in 100 mL of purified water (10 mg.Mg^2+/mL), and thereafter adding 250 μL thereof into 100 mL of Mueller Hinton Broth.
Mediums (hereinafter “MHB serum mediums including high concentration of cation”) were further prepared by adding horse serum (mechanically sterilized Nippon Biotest Laboratories inc. product), which made up of 10% volume ratio of the entire medium, into the MHB mediums including high concentration of cation. The MHB serum mediums including high concentration of cation had peptide concentrations of 50, 25, 12.5, 6.25, 3.13, 1.56 and 0.78 μM.
Next, the above-described MHB mediums including high concentration of cation and having peptide of each concentration, and the above-described MHB serum mediums including high concentration of cation and having peptide of each concentration were fed to the 96-well microplate at 100 μL a time, and the MIC were determined using the same method as example 2. As comparison, commercially available MHB mediums having peptide concentration of 50, 25, 12.5, 6.25, 3.13, 1.56 and 0.78 μM were used.

| Antimicrobial Activities (MIC) S. aureus (Staphylococcus aureus) [µM] | Antimicrobial Activities (MIC) E. coli (Escherichia coli) [µM] | Antimicrobial Activities (MIC) against S. aureus, MHB (S. aureus) [µM] | Antimicrobial Activities (MIC) against S. aureus, MHB + Cation (S. aureus) [µM] | Antimicrobial Activities (MIC) against S. aureus, MHB + Cation + Horse Serum (S. aureus) [µM] | Structure (SMILES) | hemolytic activities, in words (sheep's erythrocytes) | antimicrobial activities against gram-positive bacteria (S. aureus), in words (Staphylococcus aureus) |
| --- | --- | --- | --- | --- | --- | --- | --- |
| 3.13 | 12.5 |  |  |  | CC(C)[C@H](NC(=O)[C@H](C)NC(=O)[C@@H](NC(=O)[C@H](CCCCN)NC(=O)[C@H](CCCCN)NC(=O)[C@@H](NC(=O)[C@H](CCCCN)NC(=O)[C@H](CCCNC(=N)N)NC(=O)[C@H](CCCCN)NC(=O)[C@H](CCCCN)NC(=O)[C@H](CCCCN)NC(=O)[C@@H](N)CCCNC(=N)N)C(C)C)C(C)C)C(=O)N[C@H](C(=O)N[C@@H](CCCNC(=N)N)C(=O)N[C@H](C(N)=O)[C@@H](C)O)C(C)C [Sample 10, RKKKRKVKKVAVVRT] (H-RKKKRKVKKVAVVRT-NH2) | significantly low | particularly high antimicrobial activities |
| 0.78 | 3.13 | 3.13 | 3.13 | 3.13 | CC[C@H](C)[C@H](NC(=O)[C@H](CCC(N)=O)NC(=O)[C@@H](NC(=O)[C@H](CCCCN)NC(=O)[C@@H](NC(=O)[C@H](CCCCN)NC(=O)[C@H](CCCNC(=N)N)NC(=O)[C@H](CCCCN)NC(=O)[C@H](CCCCN)NC(=O)[C@H](CCCCN)NC(=O)[C@@H](N)CCCNC(=N)N)C(C)C)C(C)C)C(=O)N[C@H](C(=O)N[C@@H](CC(N)=O)C(=O)N[C@@H](CCCCN)C(=O)N[C@@H](CCCCN)C(N)=O)[C@@H](C)CC [Sample 9, RKKKRKVKVQIINKK] (H-RKKKRKVKVQIINKK-NH2) | significantly low | particularly high antimicrobial activities |
| 6.25 | 100 |  |  |  | CC[C@H](C)[C@H](NC(=O)[C@H](CCC(N)=O)NC(=O)[C@@H](NC(=O)[C@H](CCCNC(=N)N)NC(=O)[C@H](CCC(N)=O)NC(=O)[C@H](CC(C)C)NC(=O)[C@H](CCCCN)NC(=O)[C@H](CCCNC(=N)N)NC(=O)[C@H](CCCCN)NC(=O)[C@@H](N)CC(C)C)C(C)C)C(=O)N[C@H](C(=O)N[C@@H](CC(N)=O)C(=O)N[C@@H](CCCCN)C(N)=O)[C@@H](C)CC [Sample 4, LKRKLQRVQIINK] (H-LKRKLQRVQIINK-NH2) |  | particularly high antimicrobial activities |
| 3.13 | 6.25 |  |  |  | CC(C)[C@H](NC(=O)[C@H](C)NC(=O)[C@@H](NC(=O)[C@H](CCCCN)NC(=O)[C@H](CCCCN)NC(=O)[C@@H](NC(=O)[C@H](CCCCN)NC(=O)[C@H](CCCNC(=N)N)NC(=O)[C@H](CCCCN)NC(=O)[C@H](CCCCN)NC(=O)[C@H](CCCCN)NC(=O)[C@@H](N)CCCNC(=N)N)C(C)C)C(C)C)C(=O)N[C@H](C(=O)N[C@@H](CCCNC(=N)N)C(N)=O)C(C)C [Sample 7, RKKKRKVKKVAVVR] (H-RKKKRKVKKVAVVR-NH2) |  | particularly high antimicrobial activities |
